Experimental findings from patent US7547729B2, “1,3-diphenylprop-2-en-1-one derivative compounds, preparation method thereof and uses of same” (Genfit, priority 2004, dated 2009) are described below.

One assay deals with T1, PPARα (Homo sapiens, UniProt Q07869).
T1 construct: expressed in transfected cells; host or cells: COS-7 cells
T1 sequence (Q07869 239-466 limits assumed): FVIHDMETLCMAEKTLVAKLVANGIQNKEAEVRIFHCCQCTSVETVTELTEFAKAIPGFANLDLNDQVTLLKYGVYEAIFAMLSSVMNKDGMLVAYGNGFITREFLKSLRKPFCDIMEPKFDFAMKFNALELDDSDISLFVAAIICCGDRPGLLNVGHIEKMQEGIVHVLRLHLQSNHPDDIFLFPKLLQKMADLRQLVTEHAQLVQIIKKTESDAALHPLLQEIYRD
Briefly: PPARα/Gal4 transactivation system in COS-7 cells. The following applies: 24 hours. It counts as cell-based. The protocol:
(§1) COS-7 cells were incubated with different concentrations of the inventive compounds for 24 hours. The results are expressed as the induction factor (ratio of luminescent signal obtained with the compound and that observed without the compound) after the different treatments.
(§2) PPAR activation was tested in vitro in RK13 epitheloid or COS-7 cell lines by measuring the transcriptional activity of chimeras composed of the DNA binding domain of the yeast gal4 transcription factor and the ligand binding domain of the different PPARs. These latter results were then confirmed in cell lines according to the following protocols:
(§3) RK13 cells were from ECACC (Porton Down, UK), COS-7 cells were from the ATCC (American Type Culture Collection) and were grown in DMEM medium supplemented with 10% (VN) fetal calf serum, 100 U/ml penicillin (Gibco, Paisley, UK) and 2 mM L-glutamine (Gibco, Paisley, UK). The culture medium was changed every two days. Cells were kept at 37° C. in a humidified 95% air/5% CO2 atmosphere.
(§4) The plasmids pG5TkpGL3, pRL-CMV, pGal4-hPPARα, pGal4-hPPARγ, pGal4-hPPARδ and pGal4-φ have been described by Raspe, Madsen et al. (1999). The pGal4-mPPARα, pGal4-hPPARγ and pGal4-hPPARδ constructs were obtained by cloning into the pGal4-φ vector of PCR-amplified DNA fragments corresponding to the DEF domains of the human PPARα, PPARγ and PPARδ nuclear receptors.
(§5) RK13 cells were seeded in 24-well culture dishes at 5×10^4 cells/well, COS-7 cells in 96-well culture dishes at 5×10^4 cells/well and transfected for 2 hours with the reporter plasmid pG5TkpGL3 (50 ng/well), the expression vectors pGal4-φ, pGal4-mPPARα, pGal4-hPPARα, pGal4-hPPARγ, pGal4-hPPARδ (100 ng/well) and the transfection efficiency control vector pRL-CMV (1 ng/well) according to the previously described protocol (Raspe, Madsen et al. 1999), then incubated for 36 hours with the test compounds. At the end of the experiment, the cells were lysed (Gibco, Paisley, UK) and luciferase activity was determined with a Dual-Luciferase™ Reporter Assay System kit (Promega, Madison, Wis., USA) for RK13 cells and Steady Glow Luciferase (Promega) for COS-7 cells according to the supplier's instructions as previously described. The protein content of the cell extracts was then measured with the Bio-Rad Protein Assay (Bio-Rad, Munich, Germany) as directed by the supplier.

Another assay addresses T2, PPARδ (Homo sapiens, UniProt Q03181).
T2 construct: expressed in transfected cells; host or cells: COS-7 cells
T2 sequence (Q03181 211-439 limits assumed): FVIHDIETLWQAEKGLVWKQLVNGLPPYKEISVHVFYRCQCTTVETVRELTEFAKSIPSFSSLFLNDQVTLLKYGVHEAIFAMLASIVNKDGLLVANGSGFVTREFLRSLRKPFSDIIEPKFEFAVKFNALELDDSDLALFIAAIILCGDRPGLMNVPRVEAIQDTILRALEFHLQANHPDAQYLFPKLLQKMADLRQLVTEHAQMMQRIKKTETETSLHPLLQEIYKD
Nature of the assay: PPARδ/Gal4 transactivation system in COS-7 cells. It is filed as cell-based. As to conditions: 24 hours. The protocol:
as §1, §2, §3, §4, §5

A further assay has as its target T3, PPARγ (Homo sapiens, UniProt P37231).
T3 construct: expressed in transfected cells; host or cells: COS-7 cells
T3 sequence (P37231 238-503 limits assumed): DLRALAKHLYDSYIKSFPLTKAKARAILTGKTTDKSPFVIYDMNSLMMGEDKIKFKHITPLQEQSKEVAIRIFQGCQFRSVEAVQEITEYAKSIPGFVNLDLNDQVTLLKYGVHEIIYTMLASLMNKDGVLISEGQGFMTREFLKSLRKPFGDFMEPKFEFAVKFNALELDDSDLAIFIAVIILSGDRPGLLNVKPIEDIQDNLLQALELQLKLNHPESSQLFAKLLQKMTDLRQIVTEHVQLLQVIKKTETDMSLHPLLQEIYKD
Briefly: PPARγ/Gal4 transactivation system in COS-7 cells. It is filed as cell-based. The following applies: 24 hours. The protocol:
as §1, §2, §3, §4, §5

In assay [1] the test system is Apo E2/E2 transgenic mice. Nature of the assay: Effects on triglyceride and cholesterol metabolism in Apo E2/E2 transgenic mice. It counts as in vivo. As to conditions: gavage, 50 mg/kg/day, seven days. The protocol:
FIGS. 19a, 19b, 19c, 19d, 20a, 20b, 20c and 20d illustrate the effects of treatment with compound 2 (Cpd2), compound 13 (Cpd13), compound 33 (Cpd33) and compound 39 (Cpd39) on triglyceride and cholesterol metabolism in Apo E2/E2 transgenic mice treated by gavage with the compound at a dose of 50 mg/kg/day, for seven days.
Apo E2/E2 transgenic mice were housed in a 12-hour light/dark cycle at a constant temperature of 20±3° C. After a 1-week acclimatization period, the mice were weighed and divided into groups of 6 animals selected such that the distribution of body weight was uniform. The test compounds were suspended in carboxymethylcellulose and administered by gastric lavage at the indicated doses, once a day for 7 days. Animals had access to food and water ad libitum. At the end of the experiments, animals were weighed and sacrificed under anesthesia. Blood was collected on EDTA. Plasma was isolated by centrifugation at 3000 rpm for 20 minutes. Liver samples were removed and stored frozen in liquid nitrogen for later analysis.
Lipid concentrations in plasma (total cholesterol and free cholesterol, triglycerides and phospholipids) were determined by a colorimetric assay (Boehringer, Mannheim, Germany) according to the supplier's instructions. Plasma concentrations of apolipoproteins AI, AII and CIII were determined as previously described (Raspe et al. 1999, Asset G et al., Lipids, 1999).

The next assay relates to LDL. Briefly: Protection against LDL oxidation by copper (conjugated diene formation). The following applies: 10^−4M; for diene oxidation rate: FIG. 7b, absence of compounds 2.5. It counts as biochemical. The protocol:
Unless otherwise indicated, the reagents were from Sigma (St Quentin, France). LDL were prepared according to the method described by Lebeau et al. (Lebeau, Furman et al. 2000).
The solutions of test compounds were prepared at 10^−2 M concentration in bicarbonate buffer (pH 9) and diluted in PBS to obtain final concentrations ranging from 0.1 to 100 μM
Prior to oxidation, EDTA was removed from the LDL preparation by dialysis. Oxidation then took place at 30° C. by adding 100 μl of 16.6 μM CuSO4 solution to 160 μL of LDL (125 μg protein/ml) and 20 μl of a test compound solution. The formation of dienes, the species under observation, was followed by measuring optical density at 232 nm in the samples treated with the compounds in the presence or absence of copper. Optical density at 232 nm was measured every 10 minutes for 8 hours in a thermostated spectrophotometer (Tecan Ultra 380). The analyses were performed in triplicate. The compounds were considered to have antioxidant activity when they induced a longer lag phase and reduced the rate of oxidation and the amount of dienes formed in comparison with the control sample.

Setting [2] is: FIG. 7a, absence of compounds 67.3 minutes.

For the molecule `Cc1cc(/C=C/C(=O)c2ccc(Oc3ccccc3)cc2)cc(C)c1OC(C)(C)C(=O)O` [compound 33, 1-(4-Phenyloxyphenyl)-3-(4-carboxydimethylmethyloxy-3,5-dimethylphenyl)prop-2-en-1-one], the Induction factor on PPARα (0.001 μM) was 5.23; on PPARα (0.003 μM), 15.18; at PPARα (0.01 μM) it was 19.53; on PPARα (0.03 μM) it was 19.71; at PPARα (0.1 μM), 19.17; on PPARα (0.3 μM), 20.82. For the same molecule, the Induction factor at PPARα (1 μM) is reported as 19.97; on PPARδ (0.001 μM), 1.17; on PPARδ (0.003 μM), 1.23; on PPARδ (0.01 μM), 1.87; on PPARδ (0.03 μM), 5.29; at PPARδ (0.1 μM), 15.01. For the same molecule, the Induction factor is 33.89 at PPARδ (0.3 μM); 74.09 at PPARδ (1 μM); 90.84 at PPARδ (3 μM); 1.18 on PPARγ (0.001 μM); 1.61 on PPARγ (0.003 μM); 2.65 at PPARγ (0.01 μM). Besides, the Induction factor at PPARγ (0.03 μM) came out at 3.54; at PPARγ (0.1 μM), 4.88; on PPARγ (0.3 μM), 5.95; at PPARγ (1 μM), 6.93; on PPARγ (3 μM) it was 7.99; at PPARγ (10 μM), 6.30. Further, the plasma cholesterol result in assay [1] is listed as “decrease”. In assay [1], the plasma triglycerides result is “decrease”. Also, the lag phase with LDL (setting [2]) was determined as 148 min. Further, in the assay on LDL, the diene oxidation rate is 1.4 nmol/min/mg of LDL. The “total amount of dienes formed” value in the assay with LDL (FIG. 7c, absence of compounds 432.5) is recorded as 399 nmol/mg of LDL.
As for `Cc1cc(C(=O)/C=C/c2cc(C)c(OC(C)(C)C(=O)O)c(C)c2)cc(C)c1O` [compound 4, 1-(4-Hydroxy-3,5-dimethylphenyl)-3-(4-carboxydimethylmethyloxy-3,5-dimethylphenyl)prop-2-ene-1-one], the Induction factor on PPARα (1 μM) came to 1.67; at PPARα (10 μM) it was 9.92; on PPARγ (1 μM), 2.00; on PPARγ (10 μM), 5.82. This molecule also came in with a lag phase in the assay on LDL (FIG. 2a, copper alone 132 minutes) of 401 min. In the assay with LDL (FIG. 2b, copper alone 2.2), the “rate of diene formation” value worked out at 0.2 nmol/min/mg. Besides, in the assay with LDL (FIG. 2c, copper alone 511), the “total amount of dienes formed” value is given as 138 nmol/mg.
Turning to `Cc1cc(/C=C/C(=O)c2ccc(OCCSC3CCCCC3)cc2)cc(C)c1OC(C)(C)C(=O)O` [compound 23, 1-(4-Cyclohexylthioethyloxyphenyl)-3-(4-carboxydimethylmethyloxy-3,5-dimethylphenyl)prop-2-en-1-one], the Induction factor is given as 0.92 at PPARα (0.0003 μM); 1.11 at PPARα (0.001 μM); 1.33 on PPARα (0.003 μM); 2.35 on PPARα (0.01 μM); 4.22 at PPARα (0.03 μM); 7.16 on PPARα (0.1 μM). Also, the Induction factor at PPARα (0.3 μM) came out at 8.08; on PPARα (1 μM), 8.35; on PPARα (3 μM) it was 7.15; at PPARγ (0.0003 μM), 1.02; on PPARγ (0.001 μM), 1.43; on PPARγ (0.003 μM) it was 2.86. Further, the Induction factor is listed as 3.48 on PPARγ (0.01 μM); 5.04 on PPARγ (0.03 μM); 6.17 at PPARγ (0.1 μM); 6.84 at PPARγ (0.3 μM); 7.24 on PPARγ (1 μM); 6.98 on PPARγ (3 μM). For the same molecule, the lag phase with LDL (FIG. 4a, copper alone 61 minutes) was 96.4 min. The diene formation rate in the assay with LDL (FIG. 4b, absence of compounds 1.9) is listed as 1.3 nmol/min/mg of LDL. Moreover, the “total amount of dienes formed” value in the assay with LDL (FIG. 4c, absence of compound 370.9) is listed as 340.3 nmol/mg of LDL.
In the case of `CSc1c(C)cc(C(=O)/C=C/c2cc(C)c(OC(C)(C)C(=O)O)c(C)c2)cc1C` [compound 13, 1-(4-Methylthio-3,5-dimethylphenyl)-3-(4-carboxydimethylmethyloxy-3,5-dimethylphenyl)prop-2-en-1-one], the Induction factor at PPARα (0.001 μM) was 1.10; at PPARα (0.003 μM), 1.58; at PPARα (0.01 μM) it was 4.99; on PPARα (0.03 μM) it was 10.89; at PPARα (0.1 μM), 16.87; at PPARα (0.3 μM), 15.95. Besides, the Induction factor at PPARα (1 μM) came out at 17.05; on PPARδ (0.01 μM) it was 1.50; at PPARδ (0.03 μM), 2.17; on PPARδ (0.1 μM), 3.37; at PPARδ (0.3 μM) it was 14.00; at PPARδ (1 μM) it was 28.75. Further, the Induction factor on PPARδ (3 μM) stood at 27.72; at PPARγ (0.001 μM), 0.99; at PPARγ (0.003 μM), 1.15; at PPARγ (0.01 μM), 1.67; at PPARγ (0.03 μM), 2.18; at PPARγ (0.1 μM) it was 3.01. In addition, the Induction factor at PPARγ (0.3 μM) is 3.66; at PPARγ (1 μM), 4.03; at PPARγ (3 μM), 3.89. The plasma cholesterol entry in assay [1] is “decrease”. Moreover, in assay [1], the plasma triglycerides entry is given as “decrease”. The same molecule yielded a lag phase in the assay on LDL (setting [2]) of 219 min. Besides, in the assay with LDL, the diene oxidation rate is recorded as 1.5 nmol/min/mg of LDL.
